Test: Thermodynamic / phase stability of the crystal modification at 25° C.
Assay type: physicochemical
Description: This modification is therefore suitable in dispersions comprising micro-fine particles.
Advantageously, dispersions comprising this specific crystal modification are not subjected to phase transformations resulting in a crystal growth.
5 g of the compound obtained in Example A2 (modification (B)) and 5 g of the compound of formula (1) obtained in Example A1 are elutriated in 50 g N-methylpyrrolidone at 25° C.
The suspension is stirred for 3 days at 25° C.

For CCN(CC)c1ccc(C(=O)c2ccccc2C(=O)N2CCN(C(=O)c3ccccc3C(=O)c3ccc(N(CC)CC)cc3O)CC2)c(O)c1 [crystal modification (C)], the “thermodynamic stability of the crystal modification” value was “thermodynamically stable”.

— US8557820B2, “Crystal modifications of transmission dyes” (BASF SE, priority 2007, dated 2013)
